pIC50: −log10 of the molar value. Counter-ions that a name gives are not always drawn. Like-named read-outs stand apart in the source and are kept apart here.
Assays:
S. aureus DltA = biological target: T1, S. aureus DltA (Staphylococcus aureus, UniProt Q2FZW6); test: in vitro DltA activity assay (luminescence, IC50 determination); type: biochemical
T1 construct: made in house; host or cells: E. coli BL21
T1 sequence (Q2FZW6 1-485): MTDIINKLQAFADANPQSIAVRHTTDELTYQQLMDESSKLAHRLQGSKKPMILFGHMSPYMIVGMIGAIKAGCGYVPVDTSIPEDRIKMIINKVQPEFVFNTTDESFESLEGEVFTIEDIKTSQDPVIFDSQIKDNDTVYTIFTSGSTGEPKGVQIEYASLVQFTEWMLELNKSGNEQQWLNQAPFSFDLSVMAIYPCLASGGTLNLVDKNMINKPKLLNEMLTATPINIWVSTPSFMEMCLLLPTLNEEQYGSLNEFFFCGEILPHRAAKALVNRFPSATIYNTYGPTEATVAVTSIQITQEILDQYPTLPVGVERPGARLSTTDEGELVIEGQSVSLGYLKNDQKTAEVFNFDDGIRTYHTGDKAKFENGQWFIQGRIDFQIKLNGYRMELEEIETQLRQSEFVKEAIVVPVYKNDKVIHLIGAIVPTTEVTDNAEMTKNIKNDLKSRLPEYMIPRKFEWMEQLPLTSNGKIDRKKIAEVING
Description: (§1) The effect of the compounds of the invention on DltA enzymes has been based on the measure of their inhibition of DltA activity in vitro. To this end, recombinant proteins DltA were expressed and purified after cloning of the genes of S. aureus, E. faecalis, E. faecium and S. agalactiae as described thereafter. The capacity of the compounds of the invention to inhibit DltA enzymatic activity was assessed using the DltA assays as described below: • The dltA gene was amplified from chromosomal DNA of S. aureus, E. faecalis, E. faecium and S. agalactiae and introduced into E. coli BL21 (Invitrogen, Carlsbad, CA) following manufacturer's instruction. Bacteria were grown at 37°C under aerobic conditions and isopropyl-beta-D-thiogalactopyranoside (IPTG) was added to 0.5-1 mM when OD600 of the bacterial culture had reached 0.5. After a further incubation for 3 hours, cells were harvested by centrifugation. Purification of the recombinant DltA protein was performed by affinity chromatography on nickel-nitrilotriacetic acid (Ni-NTA) column following manufacturer's instructions (Qiagen). Fractions containing recombinant DltA protein were adjusted to 50% glycerol and stored at -20°C until use.
(§2) The binding potency of the inhibitors against DltA enzyme was assessed by IC50 determination in an in vitro DltA activity assay. The assay buffer "AB" contained 50 mM Hepes pH8.0, 10mM MgCl2, 50mM KCI, 0.012% Triton-X100, 10mM DTT and 100nM Myelin-basic protein. The following components were added in a white polystyrene Costar plate up to a final volume of 30µL: 3µL DMSO, or inhibitor dissolved in DMSO and 27µL DltA enzyme in AB. After 30min of preincubation at room temperature, 30µL of Substrates mix in AB were added in each well to a final volume of 60µL. This reaction mixture was then composed of DltA (produced in house from S. aureus, E. faecalis, E. faecium and S. agalactiae), 0.5mM D-Alanine (Sigma), 0.5-5µM ATP (Sigma) and 0.05 u/ml inorganic pyrophosphatase (Sigma) in assay buffer. After typically 1-2hours of incubation at room temperature (conversion rate around 30%), 30µL of the revelation mix were added to a final volume of 90µL, including the following constituents at the respective final concentrations: 10000 u/ml luciferase (Sigma), 30µM D-luciferin (Sigma), 100µM N-acetylcysteamine (Aldrich). Luminescence intensity was immediately measured on a Fluostar Optima (BMG) (excitation 360nm, emission 520nm) and converted into inhibition percentages.
(§3) For compounds interfering with the luminescent signal (quenching), the same experiment without DltA enzyme was performed to allow quenching determination and correction.

E. feacium DltA = biological target: T2, E. feacium DltA (Enterococcus faecium, UniProt Q3XZT7); test: as above; type: biochemical
T2 sequence (Q3XZT7 1-504): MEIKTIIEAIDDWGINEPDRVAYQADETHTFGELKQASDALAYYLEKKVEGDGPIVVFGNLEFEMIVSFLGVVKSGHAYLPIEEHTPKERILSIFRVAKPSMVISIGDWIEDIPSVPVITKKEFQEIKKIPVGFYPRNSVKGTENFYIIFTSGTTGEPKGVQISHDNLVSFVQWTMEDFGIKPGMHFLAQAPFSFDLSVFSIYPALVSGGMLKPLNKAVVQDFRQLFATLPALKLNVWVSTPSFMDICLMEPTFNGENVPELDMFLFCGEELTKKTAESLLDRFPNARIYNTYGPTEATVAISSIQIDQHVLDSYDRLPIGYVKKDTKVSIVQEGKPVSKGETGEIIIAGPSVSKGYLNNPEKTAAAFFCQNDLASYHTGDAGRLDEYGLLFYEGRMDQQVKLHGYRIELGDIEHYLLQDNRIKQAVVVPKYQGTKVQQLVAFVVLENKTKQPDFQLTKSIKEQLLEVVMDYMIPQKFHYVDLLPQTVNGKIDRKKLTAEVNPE
Description: as §1, §2, §3

E. feacalis DltA = biological target: T3, E. feacalis DltA (Enterococcus faecalis, UniProt Q830N0); test: biochemical
T3 sequence (Q830N0 1-506): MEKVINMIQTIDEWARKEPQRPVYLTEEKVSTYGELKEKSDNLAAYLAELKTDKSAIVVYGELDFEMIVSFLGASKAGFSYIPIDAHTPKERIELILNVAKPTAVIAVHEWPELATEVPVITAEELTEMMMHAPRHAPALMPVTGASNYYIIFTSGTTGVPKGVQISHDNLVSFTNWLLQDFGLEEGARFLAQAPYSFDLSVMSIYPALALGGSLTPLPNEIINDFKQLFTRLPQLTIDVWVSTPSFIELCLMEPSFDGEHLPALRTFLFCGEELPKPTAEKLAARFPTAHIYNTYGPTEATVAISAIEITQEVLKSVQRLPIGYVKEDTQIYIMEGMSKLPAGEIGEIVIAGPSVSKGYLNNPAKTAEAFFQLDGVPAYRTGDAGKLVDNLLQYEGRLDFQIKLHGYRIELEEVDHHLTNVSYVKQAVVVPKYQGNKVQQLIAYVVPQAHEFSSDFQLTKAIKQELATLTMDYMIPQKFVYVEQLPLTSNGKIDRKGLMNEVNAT
Description: as §1, with “To” for “The effect of the compounds of the invention on DltA enzymes has been based on the measure of their inhibition of DltA activity in vitro. To”
as §2, §3

S. Agalactiae DltA = biological target: T4, S. Agalactiae DltA (Streptococcus agalactiae serotype III, UniProt Q8VM67); test: biochemical
T4 sequence (Q8VM67 1-511): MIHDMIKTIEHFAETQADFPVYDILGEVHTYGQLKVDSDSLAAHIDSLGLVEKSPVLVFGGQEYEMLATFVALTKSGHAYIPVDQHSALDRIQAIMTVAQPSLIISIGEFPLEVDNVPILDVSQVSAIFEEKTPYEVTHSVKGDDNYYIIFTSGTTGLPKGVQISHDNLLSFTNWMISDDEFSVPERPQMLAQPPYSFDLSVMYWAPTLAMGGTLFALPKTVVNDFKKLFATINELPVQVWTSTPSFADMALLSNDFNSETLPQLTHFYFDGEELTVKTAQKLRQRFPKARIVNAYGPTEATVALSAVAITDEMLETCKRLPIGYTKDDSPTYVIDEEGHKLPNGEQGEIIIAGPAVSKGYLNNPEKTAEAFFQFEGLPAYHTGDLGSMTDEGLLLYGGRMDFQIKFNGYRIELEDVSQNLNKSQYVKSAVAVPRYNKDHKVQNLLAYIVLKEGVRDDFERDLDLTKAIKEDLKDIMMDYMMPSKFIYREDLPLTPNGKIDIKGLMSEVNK
Description: as §1, with “To” for “The effect of the compounds of the invention on DltA enzymes has been based on the measure of their inhibition of DltA activity in vitro. To”
as §2, §3

[1] = recombinant DltA, 30min preincubation at room temperature, 0.5mM D-Alanine, 0.5-5µM ATP, read-out: E. feacium DltA IC50

| Compound | pIC50 (S. aureus DltA) | pIC50 (E. feacium DltA) | pIC50 (E. feacalis DltA) | pIC50 (S. Agalactiae DltA) | pIC50 (E. feacium DltA; [1]) |
| --- | --- | --- | --- | --- | --- |
| O=c1[nH]cnc2c(-c3ccc4c(c3)ncn4C3CCCCC3)sc(N3CC4CNCC4(CO)C3)c12 (stereo not shown) [Example 34, 7-(1-cyclohexyl-1H-benzoimidazol-5-yl)-5-hydroxymethyl-hexahydro-pyrrolo[3,4-c]pyrrol-2-yl)-3H-thieno[3,4-d]pyrimidin-4-one hydrochloride] | 7.57 | 7.21 | 7.85 | 6.40 |  |
| CCn1cnc2cc(-c3sc(N4CC[C@H](CO)C4)c4c(=O)[nH]cnc34)ccc21 [Example 45, 7-(1-ethyl-1H-benzoimidazol-5-yl)-5-((S)-3-hydroxymethyl-pyrrolidin-1-yl)-3H-thieno[3,4-d]pyrimidin-4-one] | 6.89 |  | 7.15 | 5.47 | 6.41 |
| COCCn1cnc2cc(-c3sc(N4CC[C@H](CO)C4)c4c(=O)[nH]cnc34)ccc21 [Example 46, 5-((S)-3-hydroxymethyl-pyrrolidin-1-yl)-7-[1-(2-methoxy-ethyl)-1H-benzoimidazol-5-yl]-3H-thieno[3,4-d]pyrimidin-4-one] | 6.82 |  | 6.82 | 5.29 | 6.36 |
| O=c1[nH]cnc2c(-c3ccc4c(c3)ncn4C3CCCCC3)sc(N3C[C@@H]4[C@@H](CO)[C@@H]4C3)c12 [Example 30, 7-(1-Cyclohexyl-1H-benzimidazol-5-yl)-5-((1R,5S,6R)-6-hydroxymethyl-3-aza-bicyclo[3.1.0]hex-3-yl)-3H-thieno[3,4-d]pyrimidin-4-one] | 6.66 |  | 6.80 | 5.70 | 6.49 |
| O=c1[nH]cnc2c(-c3ccc4c(c3)ncn4C3CCCOC3)sc(N3CC[C@H](CO)C3)c12 (stereo partly drawn) [Example 49, 5-((S)-3-hydroxymethyl-pyrrolidin-1-yl)-7-[1-(tetrahydro-pyran-3-yl)-1-H-benzoimidazol-5-yl]-3H-thieno[3,4-d]pyrimidin-4-one] | 7.01 |  | 7.09 | 5.48 | 6.80 |
| O=c1[nH]cnc2c(-c3ccc4c(c3)ncn4C3CCCCC3)cn(C3CCNC3)c12 (stereo not shown) [Example 77, 7-(1-Cyclohexyl-1H-benzimidazol-5-yl)-5-pyrrolidin-3-yl-3,5-dihydro-pyrrolo[3,2-d]pyrimidin-4-one] | 7.03 |  | 6.89 | 5.80 | 6.29 |
| CN1CC=C(c2sc(-c3ccc4c(c3)ncn4C3CCCCC3)c3nc[nH]c(=O)c23)CC1 [Example 38, hydrochloride] | 6.89 | 6.89 | 7.38 | 6.04 |  |
| O=c1[nH]cnc2c(-c3ccc4c(c3)ncn4C3CCCCC3)cn(C3CCC(O)C3)c12 (racemic) [Example 71A, 7-(1-Cyclohexyl-1H-benzimidazol-5-yl)-5-(3-hydroxy-cyclopentyl)-3,5-dihydro-pyrrolo[3,2-d]pyrimidin-4-one] | 6.44 |  | 6.44 | 5.57 | 6.05 |
| O=c1[nH]cnc2c(-c3ccc4c(c3)ncn4C3CCCCC3)cn(C3CCCC(O)C3)c12 (racemic) [Example 70A, 7-(1-Cyclohexyl-1H-benzimidazol-5-yl)-5-(3-hydroxy-cyclohexyl)-3,5-dihydro-pyrrolo[3,2-d]pyrimidin-4-one] | 6.18 |  | 6.24 | 5.62 | 6.04 |
| O=c1[nH]cnc2c(-c3ccc4c(c3)ncn4C3CCCCC3)cn([C@H]3CC[C@@H](CO)CC3)c12 [Example 74, 7-(1-Cyclohexyl-1H-benzimidazol-5-yl)-5-[cis-(4-hydroxymethyl-cyclohexyl)]-3,5-dihydro-pyrrolo[3,2-d]pyrimidin-4-one] | 6.82 |  | 7.03 | 5.96 | 6.85 |
| CN(C)CCCn1cc(-c2ccc3c(c2)ncn3C2CCCCC2)c2nc[nH]c(=O)c21 [Example 80, 7-(1-Cyclohexyl-1H-benzimidazol-5-yl)-5-(3-dimethylamino-propyl)-3,5-dihydro-pyrrolo[3,2-d]pyrimidin-4-one] | 6.57 |  | 7.26 | 5.82 | 6.21 |
| CC1CCCC(n2cnc3cc(-c4sc(N5CC[C@H](CO)C5)c5c(=O)[nH]cnc45)ccc32)C1 (stereo partly shown) [Example 48] | 7.17 |  |  |  | 6.96 |
